Source: publication PMC4317219 (Pharmacology Research & Perspectives, 2014)

Assays:
[1] = test system: Sprague-Dawley rats, i.c.v. ouabain-induced hyperactivity; test: Ouabain-induced hyperactivity; assay type: in vivo, rat; settings: acute; cariprazine 1.0 mg/kg i.p. aCSF vs. saline aCSF (no ouabain); P < 0.05
[2] = target: mouse D2R-long form (mD2LR) (Mus musculus, UniProt P61168); test: cell-based
[3] = cited from earlier work
[4] = after an i.p. injection, ref [1976]

mouse D2R-long form (mD2LR), sequence (P61168 whole entry): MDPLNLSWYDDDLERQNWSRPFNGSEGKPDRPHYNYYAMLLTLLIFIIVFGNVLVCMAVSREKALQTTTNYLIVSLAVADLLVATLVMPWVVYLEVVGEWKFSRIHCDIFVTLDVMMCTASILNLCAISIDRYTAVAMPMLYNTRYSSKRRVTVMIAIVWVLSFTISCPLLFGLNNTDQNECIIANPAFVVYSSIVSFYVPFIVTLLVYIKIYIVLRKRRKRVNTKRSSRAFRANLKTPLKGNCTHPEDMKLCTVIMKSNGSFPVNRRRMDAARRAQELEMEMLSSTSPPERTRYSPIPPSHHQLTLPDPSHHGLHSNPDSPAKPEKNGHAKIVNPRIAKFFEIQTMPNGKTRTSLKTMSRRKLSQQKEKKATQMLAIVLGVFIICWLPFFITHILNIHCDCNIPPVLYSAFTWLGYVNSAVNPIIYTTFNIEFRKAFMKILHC

Structure (SMILES) | sedation: inhibition of open field activity [1] [%] | EC50 [2] [nM] | lithium levels achieved in the rats ([3]; 6.75 mEq/kg i.p. then 2.4 g/kg of food for 7 days, ref [2003]) [mmol/L] | time to maximum brain levels [3, 4] [h] | time to maximum serum level [3, 4] [h]
CN(C)C(=O)N[C@H]1CC[C@H](CCN2CCN(c3cccc(Cl)c3Cl)CC2)CC1 [Cariprazine] | 72 | 1.4 ± 0.1 | – | – | –
[Li] [lithium] | – | – | 1.01 ± 0.18 | ≤ 8 | ≤ 0.5
